The assay has as its target T1, humanen CGRP-Rezeptor (Homo sapiens, UniProt O60894+Q16602).
T1 construct: endogenous in cells; host or cells: SK-N-MC cells (membrane homogenate)
Nature of the assay: Binding studies with SK-N-MC cell membranes, displacement of 125I-Iodotyrosyl-CGRP. To be noted: SK-N-MC membrane homogenate, 50 pM 125I-Iodotyrosyl-CGRP, 180 min, room temperature. The text has this: Zum Nachweis der Affinität der voranstehend genannten Verbindungen zu humanen CGRP-Rezeptoren und ihrer antagonistischen Eigenschaften wurden die folgenden Versuche durchgeführt: • A. Bindungsstudien mit (den humanen CGRP-Rezeptor exprimierenden) SK-N-MC-Zellen SK-N-MC-Zellen werden in "Dulbecco's modified Eagle Medium" kultiviert. Das Medium konfluenter Kulturen wird entfernt. Die Zellen werden zweimal mit PBS-Puffer (Gibco 041-04190 M) gewaschen, durch Zugabe von PBS-Puffer, versetzt mit 0.02% EDTA, abgelöst und durch Zentrifugation isoliert. Nach Resuspension in 20 ml "Balanced Salts Solution" [BSS (in mM): NaCl 120, KCl 5.4, NaHCO3 16.2, MgSO4 0.8, NaHPO4 1.0, CaCl2 1.8, D-Glucose 5.5, HEPES 30, pH 7.40] werden die Zellen zweimal bei 100 x g zentrifugiert und in BSS resuspendiert. Nach Bestimmung der Zellzahl werden die Zellen mit Hilfe eines Ultra-Turrax homogenisiert und für 10 Minuten bei 3000 x g zentrifugiert. Der Überstand wird verworfen und das Pellet in Tris-Puffer (10 mM Tris, 50 mM NaCl, 5 mM MgCl2, 1 mM EDTA, pH 7.40), angereichert mit 1% Rinderserum-Albumin und 0.1% Bacitracin, rezentrifugiert und resuspendiert (1 ml / 1000000 Zellen). Das Homogenat wird bei -80°C eingefroren. Die Membranpräparationen sind bei diesen Bedingungen für mehr als 6 Wochen stabil. Nach Auftauen wird das Homogenat 1:10 mit Assay-Puffer (50 mM Tris, 150 mM NaCl, 5 mM MgCl2, 1 mM EDTA, pH 7.40) verdünnt und 30 Sekunden lang mit einem Ultra-Turrax homogenisiert. 230 µl des Homogenats werden für 180 Minuten bei Raumtemperatur mit 50 pM ^125I-Iodotyrosyl-Calcitonin-Gene-Related Peptide (Amersham) und ansteigenden Konzentrationen der Testsubstanzen in einem Gesamtvolumen von 250 µl inkubiert. Die Inkubation wird durch rasche Filtration durch mit Polyethylenimin (0.1%) behandelte GF/B-Glasfaserfilter mittels eines Zellharvesters beendet. Die an Protein gebundene Radioaktivität wird mit Hilfe eines Gammacounters bestimmt. Als nichtspezifische Bindung wird die gebundene Radioaktivität nach Gegenwart von 1 µM humanem CGRP-alpha während der Inkubation definiert. […]
T1 sequence (Q16602 23-461): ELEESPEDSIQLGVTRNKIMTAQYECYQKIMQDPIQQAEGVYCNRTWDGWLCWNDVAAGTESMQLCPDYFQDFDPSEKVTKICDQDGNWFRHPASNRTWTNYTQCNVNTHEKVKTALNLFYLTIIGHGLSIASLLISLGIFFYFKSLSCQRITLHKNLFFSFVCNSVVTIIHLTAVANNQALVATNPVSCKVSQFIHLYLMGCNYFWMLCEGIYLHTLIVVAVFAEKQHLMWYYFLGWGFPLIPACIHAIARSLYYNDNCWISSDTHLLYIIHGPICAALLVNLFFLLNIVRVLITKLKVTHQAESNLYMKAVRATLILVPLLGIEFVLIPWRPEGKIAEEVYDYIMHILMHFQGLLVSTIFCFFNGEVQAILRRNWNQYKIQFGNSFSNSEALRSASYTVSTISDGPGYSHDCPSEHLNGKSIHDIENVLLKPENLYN
T1 sequence (O60894 27-148): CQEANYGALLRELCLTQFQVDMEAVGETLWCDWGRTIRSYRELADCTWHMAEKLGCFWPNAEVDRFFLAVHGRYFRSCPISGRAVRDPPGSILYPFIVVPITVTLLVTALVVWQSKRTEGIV
With `Cn1cc(C(=O)c2cc(Nc3ccc4c(c3)CC3(C4)C(=O)Nc4ncccc43)ncn2)c2ccccc21` (stereo not drawn) [(2), 5-(6-(1-Methyl-1H-indol-3-carbonyl)pyrimidin-4-ylamino)-1,3-dihydrospiro[inden-2,3'-pyrrolo[2,3-b]pyridin]-2'(1'H)-on], the affinity, expressed as Ki, was 89 nM. Take `Cn1cc(C(=O)c2cc(N3CCC4(CC3)OC(=O)Nc3ccccc34)ncn2)c2ccccc21` [(3), 1'-(6-(1-Methyl-1H-indol-3-carbonyl)pyrimidin-4-yl)spiro[benzo[d][1,3]oxazin-4,4'-piperidin]-2(1H)-on]: the inhibition constant (Ki) (as a rule, a measure of affinity in units of concentration, obtained from inhibition or displacement) was determined as 204 nM. The value for `Cn1cc(C(=O)c2cc(N3CCC4(CC3)NC(=O)Nc3ccccc34)ncn2)c2ccccc21` [(1), 1-(6-(1-Methyl-1H-indol-3-carbonyl)pyrimidin-4-yl)-1'H-spiro[piperidin-4,4'-chinazolin]-2'(3'H)-on] was 81 nM.

The values are drawn from patent publication EP2065386A1, “CGRP antagonists” (Boehringer Ingelheim Pharma GmbH & Co. KG, priority 2007, dated 2009).
